Patent US8883807B2, “Piperidinone carboxamide indane CGRP receptor antagonists” (Merck Sharp & Dohme Corp., priority 2010, dated 2014)
Where a name gives a salt, the structure may show the parent alone. Where no end group is shown, it is not given here.

Experiments:
[1] = biological target: T1, recombinant human CL receptor/RAMP1 (Homo sapiens, UniProt O60894+Q16602); assay: Recombinant Receptor Binding Assay (125I-hCGRP); conditions: exemplary compounds of the invention
T1 construct: expressed in transfected cells; membranes
Experimental: Recombinant Receptor: Human CL receptor (Genbank accession number L76380) was subcloned into the expression vector pIREShyg2 (BD Biosciences Clontech) as a 5′NheI and 3′ PmeI fragment. Human RAMP 1 (Genbank accession number AJ001014) was subcloned into the expression vector pIRESpuro2 (BD Biosciences Clontech) as a 5′NheI and 3′NotI fragment. HEK 293 cells (human embryonic kidney cells; ATCC #CRL-1573) were cultured in DMEM with 4.5 g/L glucose, 1 mM sodium pyruvate and 2 mM glutamine supplemented with 10% fetal bovine serum (FBS), 100 units/mL penicillin and 100 μg/mL streptomycin, and maintained at 37° C. and 95% humidity. Cells were subcultured by treatment with 0.25% trypsin with 0.1% EDTA in HBSS. Stable cell line generation was accomplished by co-transfecting 10 μg of DNA with 30 μg Lipofectamine 2000 (Invitrogen) in 75 cm^2 flasks. CL receptor and RAMP1 expression constructs were co-transfected in equal amounts. Twenty-four hours after transfection the cells were diluted and selective medium (growth medium+300 μg/mL hygromycin and 1 μg/mL puromycin) was added the following day. A clonal cell line was generated by single cell deposition utilizing a FACS Vantage SE (Becton Dickinson). Growth medium was adjusted to 150 μg/mL hygromycin and 0.5 μg/mL puromycin for cell propagation.
Recombinant Receptor Binding Assay: Cells expressing recombinant human CL receptor/RAMP1 were washed with PBS and harvested in harvest buffer containing 50 mM HEPES, 1 mM EDTA and Complete™ protease inhibitors (Roche). The cell suspension was disrupted with a laboratory homogenizer and centrifuged at 48,000 g to isolate membranes. The pellets were resuspended in harvest buffer plus 250 mM sucrose and stored at −70° C. For binding assays, 20 μg of membranes were incubated in 1 mL binding buffer (10 mM HEPES, pH 7.4, 5 mM MgCl2, and 0.2% BSA) for 3 h at room temperature containing […] ^125I-hCGRP (GE Healthcare) and antagonist. The assay was terminated by filtration through 96-well GFB glass fiber filter plates (PerkinElmer) that had been blocked with 0.05% polyethyleneimine. The filters were washed 3 times with ice-cold assay buffer (10 mM HEPES, pH 7.4, and 5 mM MgCl2). Scintillation fluid was added and the plates were counted on a Topcount (Packard). Non-specific binding was determined and the data analysis was carried out with the apparent dissociation constant (Ki) determined by using a non-linear least squares fitting the bound CPM data to the equation below:
[formula] Where Y is observed CPM bound, Ymax is total bound counts, Ymin is non specific bound counts, (Ymax−Ymin) is specific bound counts, % Imax is the maximum percent inhibition, % I min is the minimum percent inhibition, radiolabel is the probe, and the Kd is the apparent dissociation constant for the radioligand for the receptor as determined by hot saturation experiments.

[2] = tested on: acute attacks of migraine; conditions: clinical trials; cited from earlier work
[3] = tested on: headache induced by CGRP infusion; conditions: control group; cited from earlier work
[4] = tested on: facial blood flow; conditions: marmoset, electrical stimulation of the trigeminal ganglion; cited from earlier work
[5] = tested on: middle meningeal artery; conditions: rats, electrical stimulation of the dura mater, prior administration; cited from earlier work
[6] = tested on: facial blood flow; conditions: rat, trigeminal ganglion stimulation; cited from earlier work

T1 sequence (Q16602 23-461): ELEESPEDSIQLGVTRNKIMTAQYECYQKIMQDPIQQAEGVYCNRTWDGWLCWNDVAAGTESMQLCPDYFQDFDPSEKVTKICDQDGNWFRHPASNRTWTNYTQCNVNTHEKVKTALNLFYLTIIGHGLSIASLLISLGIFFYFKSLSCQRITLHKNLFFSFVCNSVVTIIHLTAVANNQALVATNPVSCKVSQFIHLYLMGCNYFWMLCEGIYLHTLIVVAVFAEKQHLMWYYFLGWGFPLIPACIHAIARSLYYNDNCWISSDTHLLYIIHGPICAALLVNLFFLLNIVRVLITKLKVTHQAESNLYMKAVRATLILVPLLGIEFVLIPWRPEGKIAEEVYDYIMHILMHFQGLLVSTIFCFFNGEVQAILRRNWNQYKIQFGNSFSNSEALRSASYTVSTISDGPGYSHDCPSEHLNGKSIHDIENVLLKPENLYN
T1 sequence (O60894 27-148): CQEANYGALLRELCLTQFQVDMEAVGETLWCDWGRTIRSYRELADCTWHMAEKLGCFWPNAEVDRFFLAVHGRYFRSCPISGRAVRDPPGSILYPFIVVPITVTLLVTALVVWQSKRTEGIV

| Compound | Ki [1] | also measured |
| --- | --- | --- |
| C[C@@H]1[C@H](c2c(F)c(F)cc(F)c2F)C[C@H](NC(=O)c2ccc3c(c2)C[C@@]2(C3)C(=O)Nc3ncncc32)C(=O)N1CC(F)(F)F [Example 20] | 0.021 nM | – |
| NCCCC[C@H](NC(=O)[C@@H](Cc1cc(Br)c(O)c(Br)c1)NC(=O)N1CCC(N2Cc3ccccc3NC2=O)CC1)C(=O)N1CCN(c2ccncc2)CC1 [BIBN4096BS] | – | effectiveness in treating acute attacks of migraine [2]: effective in treating acute attacks of migraine; prevention of headache induced by CGRP infusion [3]: able to prevent headache induced by CGRP infusion; effect on increase in facial blood flow [4]: blocked |
| C[C@@H]1[C@H](c2cc(F)cc(F)c2F)C[C@H](NC(=O)c2ccc3c(c2)C[C@@]2(C3)C(=O)Nc3ncccc32)C(=O)N1CC(F)(F)F [Example 3, (2R)-N-1-[(3S,5S,6R)-6-Methyl-2-oxo-1-(2,2,2-trifluoroethyl)-5-(2,3,5-trifluorophenyl)piperidin-3-yl]-2′-oxo-1,1′,2′,3-tetrahydrospiro[indene-2,3′-pyrrolo[2,3-b]pyridine]-5-carboxamide hydrochloride] | 0.039 nM | – |
| O=C(N[C@@H]1CC[C@@H](c2cccc(F)c2F)CN(CC(F)(F)F)C1=O)N1CCC(n2c(=O)[nH]c3ncccc32)CC1 [telcagepant] | – | effectiveness in treating acute attacks of migraine [2]: antimigraine effectiveness |
| O=C(N[C@H]1C[C@@H](c2cccc(F)c2F)CN(CC(F)(F)F)C1=O)c1ccc2c(c1)C[C@@]1(C2)C(=O)Nc2ncccc21 [Example 5] | 0.061 nM | – |
| CC(C)CN1C[C@H](c2cccc(F)c2F)C[C@H](NC(=O)c2ccc3c(c2)C[C@@]2(C3)C(=O)Nc3ncccc32)C1=O [Example 14] | 0.032 nM | – |
| C[C@@H]1[C@H](c2c(F)ccc(F)c2F)C[C@H](NC(=O)c2ccc3c(c2)C[C@@]2(C3)C(=O)Nc3ncccc32)C(=O)N1CC(F)(F)F [Example 12] | 0.025 nM | – |
| CGRP(8-37) (VTHRLAGLLSRSGGVVKNNFVPTNVGSKAF; ends and bridges not checked; UniProt P06881 90-119, looked up, fragment) [a peptide CGRP receptor antagonist] | – | effect on increase in diameter of the middle meningeal artery [5]: blocked; effect on increased facial blood flow [6]: inhibited |
| C[C@@H]1[C@H](c2ccccc2)C[C@H](NC(=O)c2ccc3c(c2)C[C@@]2(C3)C(=O)Nc3ncccc32)C(=O)N1CC(F)(F)F [Example 1, (2R)-N-[(3S,5S,6R)-6-Methyl-2-oxo-5-phenyl-1-(2,2,2-trifluoroethyl)piperidin-3-yl]-2′-oxo-1,1′,2′,3-tetrahydrospiro[indene-2,3′-pyrrolo[2,3-b]pyridine]-5-carboxamide] | 0.079 nM | – |
| C[C@@H]1[C@H](c2ccccc2)C[C@H](NC(=O)c2ccc3c(c2)C[C@@]2(C3)C(=O)Nc3ncc(C#N)cc32)C(=O)N1CC(F)(F)F [Example 16] | 0.13 nM | – |
| O=C(N[C@H]1C[C@@H](c2c(Cl)cccc2Cl)CN(CC(F)(F)F)C1=O)c1ccc2c(c1)C[C@@]1(C2)C(=O)Nc2ncccc21 [Example 9] | 0.24 nM | – |
| O=C(N[C@H]1C[C@@H](c2cc(F)cc(F)c2)CN(CC(F)(F)F)C1=O)c1ccc2c(c1)C[C@@]1(C2)C(=O)Nc2ncccc21 [Example 4] | 0.18 nM | – |
| C[C@@H]1[C@H](c2cccc(Cl)c2)C[C@H](NC(=O)c2ccc3c(c2)C[C@@]2(C3)C(=O)Nc3ncccc32)C(=O)N1CC(F)(F)F [Example 2, (2R)-N-[(3S,5S,6R)-5-(3-Chlorophenyl)-6-methyl-2-oxo-1-(2,2,2-trifluoroethyl)piperidin-3 yl]-2′-oxo-1,1′,2′,3-tetrahydrospiro[indene-2,3′-pyrrolo[2,3-b]pyridine]-5-carboxamide] | 0.17 nM | – |
